Numbers after ± are expanded uncertainties.
Assay: xn = mol fraction of the nth substance listed
Conditions: 291.15 K, Liquid, Vibrating tube method

## O=C=O [carbon dioxide] + CCO
x1 = 0.184
  mass density: 819.5 ± 0.4 kg/m3
x1 = 0.227
  mass density: 826.4 ± 0.4 kg/m3
x1 = 0.304
  mass density: 836.8 ± 0.4 kg/m3
x1 = 0.455
  mass density: 855.1 ± 0.3 kg/m3
x1 = 0.728
  mass density: 865.9 ± 0.3 kg/m3
x1 = 0.838
  mass density: 856.5 ± 0.5 kg/m3
x1 = 0.951
  mass density: 828 ± 0.7 kg/m3
x1 = 0.983
  mass density: 811.3 ± 1.2 kg/m3
x1 = 0.996
  mass density: 800.6 ± 1.7 kg/m3

Reference: the NIST ThermoML archive (doi:10.1021/je034243t)
